According to patent EP3623009A1, “MODULATION OF TRF1 FOR BRAIN CANCER TREATMENT” (Fundación del Sector Público Estatal Centro Nacional de …, priority 2018, dated 2020):
“Also recorded” adds a separate entry of the source.

Tests used:
h543 GSCs [1] = assay: Sphere formation assay in h543 patient-derived GSCs; format: cell-based, human; conditions: for sphere formation (dose-response): h543 GSCs, treated 7 days; for diameter of spheres / number of spheres: h543 patient-derived primary GSCs, compared to untreated controls
Experimental: (§1) Spheres were dissociated into single cells and seeded at a density of 50, 100, 200 and 400 cells/well in a 96 well plate. Neurosphere number was assessed after 7 days. Pictures were taken using Nikon Eclipse Ti-U microscope and neurosphere diameter was measured using NIS Elements BR software.

h676 GSCs [2] = assay: Sphere formation assay in h676 patient-derived GSCs; format: cell-based, human; conditions: for sphere formation (dose-response): h676 GSCs, treated 7 days; for diameter of spheres / number of spheres: h676 patient-derived primary GSCs, compared to untreated controls
Experimental: as §1

p-AKT = p-AKT activation (p-AKT/AKT ratio, western blot) in h676 GSCs; format: cell-based, human; conditions: 24h at 1 µM
Experimental: In order to check whether the novel compounds act independently of this pathway, the present inventors treated the cells for 24h at 1 µM concentration and checked p-AKT activation.

h676 GSCs [3] = assay: Drug combination (synergy) sphere study in h676 GSCs; format: cell-based, human; conditions: combinatorial matrix, spheres after 7 days, combination index
Experimental: Using this concentration as a reference point, the present inventors designed a combinatorial matrix using different concentrations of the compounds (e.g. 2x GI50, GI50 and ½ GI50) to study all the possible combinations. Combination index is calculated to establish if the combination is synergistic, additive or antagonistic (Fig. 50A).

U251 cells = assay: Sphere formation assay in U251 cells cultured with NSC media; format: cell-based, human; conditions: seven days, compared to DMSO
Experimental: as §1
Finally, the present inventors checked if the three chemical compounds had the ability to reduce stemness in these cells. They cultured U251 cells with NSC media in order to obtain a suspension culture enriched in stem cells. The inventors performed a sphere formation assay with these cells treated with ETP-47228, ETP-47037 and ETP-50946 or DMSO for seven days. […] Of note, all these effects recapitulated what the present inventors observed with Trf1 genetic downregulation (See 2.2).

h676 GSCs [4] = assay: Subcutaneous xenograft of h676 patient-derived GSCs in nude mice; format: in vivo
Experimental: (§2) h676 and h543 patient-derived GSCs were dissociated using a 200 µl pipet and resuspended in NeuroCult medium and matrigel in a 1:1 ratio in a concentration of 1000 cell/µl. Nude mice (athymic Nude-Foxn1^nu/nu from Harlan) were injected subcutaneously with 100 µl of the cell preparation. ETP-47037 (or vehicle) was orally administrated at a concentration of 75 mg/kg 5 days per week (see also section 8), starting one week after cell injection. The vehicle consisted in 10% N-methyl-2-pyrrolidone (NMP, Sigma Aldrich) and 90% poly ethylene glycol (PEG, Sigma Aldrich). Mice were weighted and tumors were measured every 2-4 days. Tumor area was determined by the following equation: A = π * (a/2) * (b/2), were a and b are tumor length and width respectively.
(§3) For oral administration, ETP-47037 was dissolved in 10% N-methyl-2-pyrrolidone (NMP, Sigma Aldrich) and 90% polyethylene glycol (PEG, Sigma Aldrich) at a concentration of 75 mg/kg.
Next, the present inventors set to address whether TRF1 chemical inhibition was able to block tumor growth in vivo. […] Thus, the two independent primary GSCs (h676 and h543) were injected subcutaneously into nude mice. One week after GSC injection, mice received oral administration of the vehicle (NMP 10%, PEG 90%) as placebo or the ETP-47037 TRF1 inhibitor 5 days/week, every week until human endpoint, and tumors were continuously followed-up by caliper measurements (Fig. 42A).

h543 GSCs [5] = assay: Subcutaneous xenograft of h543 patient-derived GSCs in nude mice; format: in vivo; conditions: oral 75 mg/kg 5 days/week from one week after injection, caliper, vs vehicle
Experimental: as §2, §3
Next, the present inventors set to address whether TRF1 chemical inhibition was able to block tumor growth in vivo. […] Thus, the two independent primary GSCs (h676 and h543) were injected subcutaneously into nude mice. […]

[6] = Tolerability and pathology of xenograft mice after long-term treatment; format: in vivo, nude mice
Experimental: as §2, with “respectively. […] Table1. Mice pathologies after long-term treatment with vehicle or ETP-47037” for “respectively.”

[7] = Brain blood barrier crossing (statement)
[8] = system: K-Ras^G12V-induced lung tumors; conditions: Trf1 chemical inhibition; García-Beccaria et al. 2015; cited from earlier work
[9] = h676 xenograft, post-mortem, vs placebo

| SMILES | dependence on p-AKT (p-AKT) | synergic effect with the PI3Ki (ETP-47037) (h676 GSCs [3]) | diameter of neurospheres (U251 cells) | number of neurospheres (U251 cells) | diameter of spheres (h543 GSCs [1]) | number of spheres (h543 GSCs [1]) | diameter of spheres (h676 GSCs [2]) | number of spheres (h676 GSCs [2]) | further results |
| --- | --- | --- | --- | --- | --- | --- | --- | --- | --- |
| CC(=O)O[C@@]12CO[C@@H]1C[C@H](O)[C@@]1(C)C(=O)[C@H](O)C3=C(C)[C@@H](OC(=O)[C@H](O)[C@@H](NC(=O)OC(C)(C)C)c4ccccc4)C[C@@](O)([C@@H](OC(=O)c4ccccc4)[C@H]21)C3(C)C [Docetaxel, reference compound] | act independently of p-AKT | significant synergic effect | – | – | – | – | – | – | sphere formation (dose-response) (h543 GSCs [1]): most potent compounds; sphere formation (dose-response) (h676 GSCs [2]): most potent compounds |
| NC(Cc1ccccc1)c1csc(Nc2ncccn2)n1 (centres unmarked) [ETP-50946] | – | – | strong reduction | strong reduction | significant drastic reduction | significant drastic reduction | significant drastic reduction | significant drastic reduction | – |
| CS(=O)(=O)N1CCN(Cc2cc3c(N4CCOCC4)nc(-c4cnc(N)nc4)cn3n2)CC1 [ETP-47037] | – | – | strong reduction | strong reduction | significant drastic reduction | significant drastic reduction | significant drastic reduction | significant drastic reduction | proliferation marker Ki67 (h676 GSCs [4]; GSCs derived xenograft tumors, Ki67-positive cells per field, vs vehicle): reduces proliferation; γH2AX DNA damage marker (h676 GSCs [4]; GSCs derived xenograft tumors, γH2AX-positive cells per field, vs vehicle): induces DNA damage; decrease of TRF1 protein levels (h676 GSCs [4]; h676 xenograft tumors, immunofluorescence, vs placebo): 80%; tumor areas (h676 GSCs [4]; h676 xenograft, oral 75 mg/kg 5 days/week from one week after injection, caliper, vs vehicle): drastic reduction; tumor size (h676 GSCs [4]; [9]): striking decrease; tumor weight (h676 GSCs [4]; [9]): striking decrease; histological analysis of the tumors (h676 GSCs [4]; xenograft tumors after treatment): decreased cellularity in the tumors, together with necrotic areas, apoptotic bodies, compacted chromatin and fragmented DNA; tumor areas (h543 GSCs [5]): drastic reduction; Mice pathologies after long-term treatment ([6]; one cell per mouse (Mice 1 to 4)): Mice 1: dermatitis, mild widening of lymphatic vessels in intestine; also recorded: Mice 2: dermatitis; also recorded: Mice 3: dermatitis; also recorded: Mice 4: dermatitis; signs of sickness or morbidity ([6]; treated cohorts compared to the placebo group): did not detect any signs of sickness or morbidity; crossing the brain blood barrier [7]: not crossing the brain blood barrier; growth of already established lung adenocarcinomas [8]: effectively impair the growth; mouse and tissue viability [8]: without affecting mouse and tissue viability |
| COc1ccc(-c2ccc3c(N4CCOCC4)nc(N4C[C@@H](C)O[C@@H](C)C4)nc3n2)cc1CO [KU-0063794] | p-AKT dependent | – | – | – | – | – | – | – | – |
| Cc1cnc2c(N3CCOCC3)nc(-c3ccc(NC(=O)Nc4ccc(C(=O)N5CCN(C)CC5)cc4)cc3)cn12 [ETP-47228] | – | – | strong reduction | strong reduction | significant drastic reduction | significant drastic reduction | significant drastic reduction | significant drastic reduction | growth of already established lung adenocarcinomas [8]: effectively impair the growth; mouse and tissue viability [8]: without affecting mouse and tissue viability |
| CN1CC[C@H](c2c(O)cc(O)c3c(=O)cc(-c4ccccc4Cl)oc23)[C@H](O)C1 [Flavopiridol] | act independently of p-AKT | – | – | – | – | – | – | – | – |
| Nc1ccn([C@@H]2O[C@H](CO)[C@@H](O)C2(F)F)c(=O)n1 [Gemcitabine, reference compound] | act independently of p-AKT | significant synergic effect | – | – | – | – | – | – | sphere formation (dose-response) (h543 GSCs [1]): most potent compounds; sphere formation (dose-response) (h676 GSCs [2]): most potent compounds |
| C[C@@H](Oc1cc(-n2cnc3ccc(CN4CCN(C)CC4)cc32)sc1C(N)=O)c1ccccc1C(F)(F)F [GSK461364] | p-AKT dependent | – | – | – | – | – | – | – | – |
| COc1cc(Nc2ncc3c(n2)-c2ccc(Cl)cc2C(c2c(F)cccc2OC)=NC3)ccc1C(=O)O [Alisertib] | act independently of p-AKT | – | – | – | – | – | – | – | – |
| O=C(Nc1ccc2[nH]nc(-c3ccncc3)c2c1)[C@@H]1CCN(CC(=O)N2CCN(c3ccc(-c4ncccn4)cc3)CC2)C1 [SCH772984] | act independently of p-AKT | significant synergic effect | – | – | – | – | – | – | – |
